Results taken from PMC7032066 (Insect biochemistry and molecular biology, 2019).
Starred links: 1 amine or outer side, 2 acyl side, 3 side chain; linkers in the order of their positions; H or OH if unused. Non-standard residues stand in square brackets, D forms with d. Residues, ends and D or L forms follow the SMILES beside them. Mur = C[C@@H](O[C@H]1[C@H](O)[C@@H](CO)OC(O)[C@@H]1N[*:1])C(=O)[*:2]; d(isoGln) = NC(=O)[C@@H](CCC(=O)[*:2])N[*:1]

Molecular target: T1, M. sexta PGRP1 (Manduca sexta, UniProt Q86RS6)
T1 sequence (Q86RS6 20-191): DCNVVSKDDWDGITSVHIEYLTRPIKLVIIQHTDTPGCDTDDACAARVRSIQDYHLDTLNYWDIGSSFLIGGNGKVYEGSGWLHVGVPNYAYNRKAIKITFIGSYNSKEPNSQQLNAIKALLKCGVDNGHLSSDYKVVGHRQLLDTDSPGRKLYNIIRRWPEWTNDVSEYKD
Experiment: SPR
Assay type: binding
Conditions: HBS-EP pH 7.4 (10 mM HEPES, 150 mM NaCl, 3 mM EDTA, 0.005% polysorbate 20), 25°C

SMILES: CC(=O)N[C@H]1C(O)O[C@H](CO)[C@@H](O)[C@@H]1O[C@H](C)C(=O)N[C@@H](C)C(=O)N[C@H](CCC(=O)N[C@@H](CCCCN)C(=O)N[C@H](C)C(=O)N[C@H](C)C(N)=O)C(N)=O (stereo partly shown) [Lys-MPP] (Ac-[Mur]A[d(isoGln)]K[dA][dA]-NH2)
- Kd: 45.6 µM
